Series [1] can be described thus: Inhibition of FIH (unknown origin). Set-up: species or system Homo sapiens.
The target of the next series is T1, Cytochrome P450 1A2 (Homo sapiens, UniProt P05177).
T1 sequence (P05177 whole entry): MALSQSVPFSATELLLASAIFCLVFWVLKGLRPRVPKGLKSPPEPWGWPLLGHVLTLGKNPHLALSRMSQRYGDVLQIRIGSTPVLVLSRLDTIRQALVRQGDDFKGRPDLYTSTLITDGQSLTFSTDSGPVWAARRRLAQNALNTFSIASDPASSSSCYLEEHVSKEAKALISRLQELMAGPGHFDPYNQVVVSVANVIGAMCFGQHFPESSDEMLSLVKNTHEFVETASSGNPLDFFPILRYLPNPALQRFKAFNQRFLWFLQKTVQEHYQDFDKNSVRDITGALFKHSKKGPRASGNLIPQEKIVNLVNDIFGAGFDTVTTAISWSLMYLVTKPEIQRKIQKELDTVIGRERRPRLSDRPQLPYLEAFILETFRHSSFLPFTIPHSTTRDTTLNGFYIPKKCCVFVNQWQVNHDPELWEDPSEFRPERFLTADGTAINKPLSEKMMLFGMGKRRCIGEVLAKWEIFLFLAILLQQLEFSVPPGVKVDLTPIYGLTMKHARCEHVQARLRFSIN
The series can be described thus: Inhibition of CYP1A2 in human liver microsomes using phenacetin as substrate preincubated for 5 mins followed by NADPH addition and measured after 10 mins by LC-MS/MS analysis. The format is ADME, Microsome.

The target of another series is Cytochrome P450 2C9 (Homo sapiens, UniProt P11712). The series can be described thus: Inhibition of CYP2C9 in human liver microsomes using diclofenac as substrate preincubated for 5 mins followed by NADPH addition and measured after 10 mins by LC-MS/MS analysis. The format is ADME, Microsome. Background: Liver microsomes are vesicles of endoplasmic reticulum, rich in cytochrome P450 enzymes.
Cytochrome P450 2C9, sequence (P11712 whole entry): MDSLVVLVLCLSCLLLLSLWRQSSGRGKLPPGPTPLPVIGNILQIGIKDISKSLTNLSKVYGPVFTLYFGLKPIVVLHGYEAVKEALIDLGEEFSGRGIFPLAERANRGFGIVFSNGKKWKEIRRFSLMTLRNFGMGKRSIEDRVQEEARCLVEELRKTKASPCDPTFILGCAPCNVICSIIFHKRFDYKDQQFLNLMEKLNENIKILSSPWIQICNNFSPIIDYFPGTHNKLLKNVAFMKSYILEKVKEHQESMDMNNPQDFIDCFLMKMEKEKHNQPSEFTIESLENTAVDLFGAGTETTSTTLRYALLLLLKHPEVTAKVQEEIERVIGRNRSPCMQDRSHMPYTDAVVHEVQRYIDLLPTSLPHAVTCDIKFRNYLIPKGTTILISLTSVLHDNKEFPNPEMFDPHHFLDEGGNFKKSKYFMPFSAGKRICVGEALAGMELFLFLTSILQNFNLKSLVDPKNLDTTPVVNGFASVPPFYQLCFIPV

Another series concerns the target Cytochrome P450 2C19 (Homo sapiens, UniProt P33261). Nature of the series: Inhibition of CYP2C19 in human liver microsomes using S-mephenytoin as substrate preincubated for 5 mins followed by NADPH addition and measured after 45 mins by LC-MS/MS analysis. The class given is ADME, Microsome.
Another series addresses Cytochrome P450 2D6 (Homo sapiens, UniProt P10635). The series can be described thus: Inhibition of CYP2D6 in human liver microsomes using bufuralol as substrate preincubated for 5 mins followed by NADPH addition and measured after 10 mins by LC-MS/MS analysis. The format is ADME, Microsome.
Another series deals with Cytochrome P450 3A4 (Homo sapiens, UniProt P08684). The series can be described thus: Inhibition of CYP3A4 in human liver microsomes using testosterone as substrate preincubated for 5 mins followed by NADPH addition and measured after 5 mins by LC-MS/MS analysis. The class given is ADME, Microsome.
Cytochrome P450 3A4, sequence (P08684 whole entry): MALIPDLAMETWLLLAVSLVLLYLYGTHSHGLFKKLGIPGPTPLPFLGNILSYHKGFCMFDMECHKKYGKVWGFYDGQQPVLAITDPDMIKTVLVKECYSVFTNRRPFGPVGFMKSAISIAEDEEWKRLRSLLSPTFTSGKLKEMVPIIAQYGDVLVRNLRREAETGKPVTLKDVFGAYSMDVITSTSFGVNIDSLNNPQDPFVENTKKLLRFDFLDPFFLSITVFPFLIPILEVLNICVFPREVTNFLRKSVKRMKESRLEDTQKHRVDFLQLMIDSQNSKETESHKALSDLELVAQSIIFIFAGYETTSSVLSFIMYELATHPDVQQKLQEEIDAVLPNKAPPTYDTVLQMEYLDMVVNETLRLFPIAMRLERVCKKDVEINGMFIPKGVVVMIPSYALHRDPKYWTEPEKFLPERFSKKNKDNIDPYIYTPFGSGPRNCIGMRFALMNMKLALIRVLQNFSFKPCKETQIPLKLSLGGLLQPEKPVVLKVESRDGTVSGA
In series [2] the target is Voltage-gated inwardly rectifying potassium channel KCNH2 (Homo sapiens, UniProt Q12809). Nature of the series: Inhibition of human ERG at 30 uM. The class given is toxicity.
Voltage-gated inwardly rectifying potassium channel KCNH2, sequence (Q12809 whole entry): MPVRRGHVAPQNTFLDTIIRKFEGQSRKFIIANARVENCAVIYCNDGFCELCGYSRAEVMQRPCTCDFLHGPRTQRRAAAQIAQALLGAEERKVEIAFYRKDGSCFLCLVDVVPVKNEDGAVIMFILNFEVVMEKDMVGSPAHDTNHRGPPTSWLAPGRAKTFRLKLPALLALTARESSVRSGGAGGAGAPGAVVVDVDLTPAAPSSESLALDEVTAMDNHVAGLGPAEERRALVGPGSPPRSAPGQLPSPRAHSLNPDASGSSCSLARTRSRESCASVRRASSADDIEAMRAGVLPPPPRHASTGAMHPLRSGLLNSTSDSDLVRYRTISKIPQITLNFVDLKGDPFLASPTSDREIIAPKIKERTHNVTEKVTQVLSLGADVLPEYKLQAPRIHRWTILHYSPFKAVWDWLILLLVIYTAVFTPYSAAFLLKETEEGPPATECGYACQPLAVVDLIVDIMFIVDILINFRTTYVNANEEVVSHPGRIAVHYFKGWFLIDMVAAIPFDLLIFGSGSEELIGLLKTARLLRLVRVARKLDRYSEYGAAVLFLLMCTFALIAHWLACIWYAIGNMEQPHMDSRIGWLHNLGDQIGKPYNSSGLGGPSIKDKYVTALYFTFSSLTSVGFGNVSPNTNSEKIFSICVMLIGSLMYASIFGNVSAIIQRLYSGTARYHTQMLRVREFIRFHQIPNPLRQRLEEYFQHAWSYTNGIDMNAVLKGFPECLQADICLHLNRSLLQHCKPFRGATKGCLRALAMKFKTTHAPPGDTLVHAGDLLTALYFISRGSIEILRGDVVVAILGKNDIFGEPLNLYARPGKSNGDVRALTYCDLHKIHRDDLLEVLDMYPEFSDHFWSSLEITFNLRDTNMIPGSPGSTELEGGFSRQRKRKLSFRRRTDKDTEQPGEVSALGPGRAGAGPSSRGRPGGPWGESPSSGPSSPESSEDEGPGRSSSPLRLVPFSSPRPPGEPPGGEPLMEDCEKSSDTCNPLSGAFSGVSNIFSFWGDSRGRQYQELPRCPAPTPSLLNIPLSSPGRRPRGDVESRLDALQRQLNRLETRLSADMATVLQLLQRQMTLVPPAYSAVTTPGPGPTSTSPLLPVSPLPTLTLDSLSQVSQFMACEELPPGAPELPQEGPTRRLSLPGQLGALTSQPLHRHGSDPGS
The nature of series [3]: Metabolic stability in rat liver microsomes assessed as intrinsic clearance in presence of NADPH by LC-MS/MS analysis.

Results on three molecules are retold here after ChEMBL document CHEMBL6087392, “Discovery of ZG-2305, an Orally Bioavailable Factor Inhibiting HIF Inhibitor for the Treatment of Obesity and Fatty Liver Disease” (J Med Chem, 2025).

Where only a bound is given, the exact number is not on record here.

Cytochrome P450 2C19, sequence (P33261 whole entry): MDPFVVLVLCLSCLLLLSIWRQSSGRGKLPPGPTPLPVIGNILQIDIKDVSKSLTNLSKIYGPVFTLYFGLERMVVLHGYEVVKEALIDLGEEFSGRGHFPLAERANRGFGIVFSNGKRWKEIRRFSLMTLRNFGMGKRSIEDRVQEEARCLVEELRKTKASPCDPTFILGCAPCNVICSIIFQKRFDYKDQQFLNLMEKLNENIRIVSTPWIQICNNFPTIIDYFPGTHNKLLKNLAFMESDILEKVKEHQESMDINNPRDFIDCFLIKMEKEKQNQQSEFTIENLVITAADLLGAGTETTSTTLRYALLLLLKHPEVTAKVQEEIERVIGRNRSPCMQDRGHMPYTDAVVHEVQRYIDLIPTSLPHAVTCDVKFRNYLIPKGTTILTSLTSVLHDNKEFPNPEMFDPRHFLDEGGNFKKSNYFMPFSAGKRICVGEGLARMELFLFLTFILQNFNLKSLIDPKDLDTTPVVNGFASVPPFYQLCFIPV
Cytochrome P450 2D6, sequence (P10635 whole entry): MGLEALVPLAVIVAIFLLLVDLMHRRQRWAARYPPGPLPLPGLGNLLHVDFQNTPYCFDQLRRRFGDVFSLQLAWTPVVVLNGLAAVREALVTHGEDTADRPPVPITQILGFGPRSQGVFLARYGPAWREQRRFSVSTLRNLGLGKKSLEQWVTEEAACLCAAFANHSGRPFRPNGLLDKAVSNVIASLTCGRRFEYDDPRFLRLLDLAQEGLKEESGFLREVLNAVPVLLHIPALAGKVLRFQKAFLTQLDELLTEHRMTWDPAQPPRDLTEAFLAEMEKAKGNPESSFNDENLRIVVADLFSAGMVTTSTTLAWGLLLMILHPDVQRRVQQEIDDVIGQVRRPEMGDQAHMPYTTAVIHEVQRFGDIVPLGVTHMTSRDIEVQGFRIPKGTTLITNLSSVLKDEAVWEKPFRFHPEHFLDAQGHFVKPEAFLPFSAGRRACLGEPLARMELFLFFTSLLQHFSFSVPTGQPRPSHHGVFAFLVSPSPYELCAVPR

In turn, `O=C(O)Cc1cs/c(=N\C(=O)C2CCN(S(=O)(=O)Cc3ccccc3)C2)n1O` (stereo not drawn) showed an IC50 in series [1] of 0.28 µM.

As to `O=C(O)CNC(=O)c1ncc(-c2cc(-c3cc(Cl)cc(Cl)c3)no2)cc1O`, the IC50 against Cytochrome P450 1A2, at Cytochrome P450 2C9, against Cytochrome P450 2C19, against Cytochrome P450 2D6 and at Cytochrome P450 3A4 was above 30 µM each time. Further, the “inhibition (INH)” value in series [2] was “Not_active”.

For `C[C@]12CC[C@H]3[C@@H](CCC4=CC(=O)CC[C@@]43C)[C@@H]1CC[C@@H]2O` [TESTOSTERONE], the microsomal CLint in series [3] was 1200 µL/min/mg.

Usually IC50 stands for the concentration at which inhibition is half-maximal. As usually defined, the microsomal CLint is the capacity of the preparation to metabolise the compound, expressed as a volume cleared per time.
